Assay results reported in ChEMBL document CHEMBL1127439, “Structure-activity relationship studies of central nervous system agents. 13. 4-[3-(Benzotriazol-1-yl)propyl]-1-(2-methoxyphenyl)piperazine, a new putative 5-HT1A receptor antagonist, and its analogs” (J Med Chem, 1994).

Experiments:
Mus musculus [1] = test: Effect on 8-OH-DPAT-induced hypothermia in mice (5 mg/kg) at intraperitoneal dosage of 10 mg/kg of compound after 60 mins; assay type: functional
Rattus norvegicus [2] = test: Tested for the effect on 8-OH-DPAT-induced lower lip retraction (LLR) in rat at dosage of 10 mg/kg; assay type: functional
Rattus norvegicus [3] = test: Tested for the induction of lower lip retraction (LLR) by the investigated compounds in rat at dosage of 10 mg/kg; assay type: functional
Mus musculus [4] = test: Effect on body temperature in mice at intraperitoneal dosage of 10 mg/kg, (compound administered 30 min before the test) after 60 min; assay type: functional
Rattus norvegicus [5] = test: Tested for the effect on 8-OH-DPAT-induced behavior in reserpine pretreated rat against forepaw treading at dosage of 10 mg/kg; assay type: functional
Mus musculus [6] = test: Effect on 8-OH-DPAT-induced hypothermia in mice (5 mg/kg) at intraperitoneal dosage of 10 mg/kg of compound after 30 mins; assay type: functional
Rattus norvegicus [7] = test: Tested for the effect on 8-OH-DPAT-induced behavior in reserpine pretreated rat against flat body posture at dosage of 10 mg/kg; assay type: functional
Mus musculus [8] = test: Effect on body temperature in mice at intraperitoneal dosage of 10 mg/kg, (compound administered 30 min before the test) after 30 min; assay type: functional
Mus musculus [9] = test: Effect on 8-OH-DPAT-induced hypothermia in mice (5 mg/kg) at intraperitoneal dosage of 10 mg/kg of compound after 15 mins; assay type: functional
Mus musculus [10] = test: Effect on 8-OH-DPAT-induced hypothermia in mice (5 mg/kg) at intraperitoneal dosage of 10 mg/kg of compound after 45 mins.; assay type: functional
Mus musculus [11] = test: Effect on body temperature in mice at intraperitoneal dosage of 10 mg/kg, (compound administered 30 min before the test) after 45 min; assay type: functional
[12] = target: Serotonin 2 (5-HT2) receptor (Rattus norvegicus, UniProt P30994+P08909+P14842); test: Tested in vitro for receptor binding affinity against 5-hydroxytryptamine 2 receptor using radioligand [3H]ketanserin; assay type: protein assay
[13] = target: T1, 5-hydroxytryptamine receptor 1A (Rattus norvegicus, UniProt P19327); test: Tested in vitro for receptor binding affinity against 5-hydroxytryptamine 1A receptor using radioligand [3H]8-OH-DPAT
T1 sequence (P19327 whole entry): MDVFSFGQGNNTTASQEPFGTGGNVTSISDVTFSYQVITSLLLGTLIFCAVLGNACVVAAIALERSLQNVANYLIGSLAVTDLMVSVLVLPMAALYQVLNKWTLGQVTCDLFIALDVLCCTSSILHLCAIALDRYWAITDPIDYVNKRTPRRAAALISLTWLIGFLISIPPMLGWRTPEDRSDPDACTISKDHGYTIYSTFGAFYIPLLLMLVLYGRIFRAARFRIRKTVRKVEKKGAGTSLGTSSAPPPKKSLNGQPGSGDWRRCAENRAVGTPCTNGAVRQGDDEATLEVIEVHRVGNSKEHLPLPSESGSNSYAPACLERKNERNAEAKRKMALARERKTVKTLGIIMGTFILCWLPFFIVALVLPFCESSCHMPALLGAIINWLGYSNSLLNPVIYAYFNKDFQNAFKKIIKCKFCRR

Rattus norvegicus [14] = species: Rattus norvegicus; test: Selectivity is the ratio between Ki values of 5-HT2 and 5-HT1A
Mus musculus [15] = test: Effect on 8-OH-DPAT-induced hypothermia in mice (5 mg/kg) at intraperitoneal dosage of 8 mg/kg of compound after 60 mins; assay type: functional
Mus musculus [16] = test: Effect on 8-OH-DPAT-induced hypothermia in mice (5 mg/kg) at intraperitoneal dosage of 16 mg/kg of compound after 15 mins; assay type: functional
Rattus norvegicus [17] = test: Tested for the effect on 8-OH-DPAT-induced behavior in reserpine pretreated rat against flat body posture at dosage of 8 mg/kg; assay type: functional
Mus musculus [18] = test: Effect on 8-OH-DPAT-induced hypothermia in mice (5 mg/kg) at intraperitoneal dosage of 4 mg/kg of compound after 45 mins. Values expressed as +/- SEM; assay type: functional
Mus musculus [19] = test: Effect on 8-OH-DPAT-induced hypothermia in mice (5 mg/kg) at intraperitoneal dosage of 8 mg/kg of compound after 15 mins. Values expressed as +/- SEM; assay type: functional
Rattus norvegicus [20] = test: Tested for the effect on 8-OH-DPAT-induced behavior in reserpine pretreated rat against flat body posture at dosage of 4 mg/kg; assay type: functional
Rattus norvegicus [21] = test: Tested for the induction of lower lip retraction (LLR) by the investigated compounds in rat at dosage of 16 mg/kg; assay type: functional
Rattus norvegicus [22] = test: Tested for the effect on 8-OH-DPAT-induced behavior in reserpine pretreated rat against flat body posture at dosage of 16 mg/kg; assay type: functional
Rattus norvegicus [23] = test: Tested for the induction of lower lip retraction (LLR) by the investigated compounds in rat at dosage of 4 mg/kg; assay type: functional
Mus musculus [24] = test: Effect on 8-OH-DPAT-induced hypothermia in mice (5 mg/kg) at intraperitoneal dosage of 4 mg/kg of compound after 30 mins. Values expressed as +/- SEM; assay type: functional
Mus musculus [25] = test: Effect on 8-OH-DPAT-induced hypothermia in mice (5 mg/kg) at intraperitoneal dosage of 4 mg/kg of compound after 15 mins. Values expressed as +/- SEM; assay type: functional
Rattus norvegicus [26] = test: Tested for the effect on 8-OH-DPAT-induced behavior in reserpine pretreated rat against forepaw treading at dosage of 16 mg/kg; assay type: functional
Mus musculus [27] = test: Effect on 8-OH-DPAT-induced hypothermia in mice (5 mg/kg) at intraperitoneal dosage of 8 mg/kg of compound after 30 mins. Values expressed as +/- SEM; assay type: functional
Rattus norvegicus [28] = test: Tested for the effect on 8-OH-DPAT-induced lower lip retraction (LLR) in rat at dosage of 8 mg/kg; assay type: functional
Mus musculus [29] = test: Effect on 8-OH-DPAT-induced hypothermia in mice (5 mg/kg) at intraperitoneal dosage of 4 mg/kg of compound after 60 mins. Values expressed as +/- SEM; assay type: functional
Mus musculus [30] = test: Effect on 8-OH-DPAT-induced hypothermia in mice (5 mg/kg) at intraperitoneal dosage of 8 mg/kg of compound after 45 mins. Values expressed as +/- SEM; assay type: functional
Mus musculus [31] = test: Effect on 8-OH-DPAT-induced hypothermia in mice (5 mg/kg) at intraperitoneal dosage of 16 mg/kg of compound after 60 mins; assay type: functional
Mus musculus [32] = test: Effect on 8-OH-DPAT-induced hypothermia in mice (5 mg/kg) at intraperitoneal dosage of 16 mg/kg of compound after 30 mins; assay type: functional
Rattus norvegicus [33] = test: Tested for the effect on 8-OH-DPAT-induced lower lip retraction (LLR) in rat at dosage of 4 mg/kg; assay type: functional
Rattus norvegicus [34] = test: Tested for the effect on 8-OH-DPAT-induced behavior in reserpine pretreated rat against forepaw treading at dosage of 4 mg/kg; assay type: functional
Rattus norvegicus [35] = test: Tested for the effect on 8-OH-DPAT-induced lower lip retraction (LLR) in rat at dosage of 16 mg/kg; assay type: functional
Rattus norvegicus [36] = test: Tested for the effect on 8-OH-DPAT-induced lower lip retraction (LLR) in rat at dosage of 2 mg/kg; assay type: functional
Rattus norvegicus [37] = test: Tested for the induction of lower lip retraction (LLR) by the investigated compounds in rat at dosage of 2 mg/kg; assay type: functional
Rattus norvegicus [38] = test: Tested for the induction of lower lip retraction (LLR) by the investigated compounds in rat at dosage of 8 mg/kg; assay type: functional
Mus musculus [39] = test: Effect on 8-OH-DPAT-induced hypothermia in mice (5 mg/kg) at intraperitoneal dosage of 16 mg/kg of compound after 45 mins; assay type: functional
Rattus norvegicus [40] = test: Tested for the effect on 8-OH-DPAT-induced behavior in reserpine pretreated rat against forepaw treading at dosage of 8 mg/kg; assay type: functional

`COc1ccccc1N1CCN(C[C@@H](C(=O)NC(C)(C)C)c2ccccc2)CC1` gave a Delta t (Mus musculus [1]) of 0.1 °C, an LLR score (Rattus norvegicus [2]) of 0.8 and an LLR score (Rattus norvegicus [3]) of 0.1. The Delta t (Mus musculus [4]) was 0.2 °C, the Behavioral score (Rattus norvegicus [5]) was 1 and the Delta t (Mus musculus [6]) was 0 °C. It also gave a Behavioral score (Rattus norvegicus [7]) of 9.7, a Delta t (Mus musculus [8]) of 0.2 °C and a Delta t (Mus musculus [9]) of 0.2 °C. It also gave a Delta t (Mus musculus [10]) of 0.3 °C and a Delta t (Mus musculus [11]) of 0.2 °C.

`COc1ccccc1N1CCN(CCn2nc3ccccc3n2)CC1` was tested, and the Ki [12] was 1760 nM, the Ki [13] was 41 nM and the Selectivity (Rattus norvegicus [14]) was 43.

`COc1ccccc1N1CCN(CCCCn2nnc3ccccc32)CC1` showed a Delta t (Mus musculus [15]) of 2.7 °C, a Delta t (Mus musculus [16]) of 5.3 °C and a Behavioral score (Rattus norvegicus [17]) of 8.2. The Delta t (Mus musculus [18]) was 3.8 °C, the Delta t (Mus musculus [19]) was 3.9 °C and the Behavioral score (Rattus norvegicus [20]) was 11. For the same compound, the LLR score (Rattus norvegicus [21]) was 0.7, the Ki [12] was 160 nM and the Behavioral score (Rattus norvegicus [22]) was 12.7. For the same compound, the LLR score (Rattus norvegicus [23]) was 0.3, the Delta t (Mus musculus [24]) was 4.2 °C and the Delta t (Mus musculus [25]) was 3.9 °C. The Behavioral score (Rattus norvegicus [26]) was 6.1, the Delta t (Mus musculus [27]) was 4.1 °C and the LLR score (Rattus norvegicus [28]) was 1.9. For the same compound, the Delta t (Mus musculus [29]) was 3.2 °C, the Delta t (Mus musculus [30]) was 3.5 °C and the Delta t (Mus musculus [31]) was 5.2 °C. The Delta t (Mus musculus [32]) was 5.6 °C, the LLR score (Rattus norvegicus [33]) was 2.1 and the Behavioral score (Rattus norvegicus [34]) was 10.3. The LLR score (Rattus norvegicus [35]) was 2.4, the LLR score (Rattus norvegicus [36]) was 2.2 and the LLR score (Rattus norvegicus [37]) was 0.2. The Ki [13] was 17 nM, the Selectivity (Rattus norvegicus [14]) was 9.4 and the LLR score (Rattus norvegicus [38]) was 0.1. The Delta t (Mus musculus [39]) was 5.6 °C and the Behavioral score (Rattus norvegicus [40]) was 3.6.

In the case of `CCCN1CCN(c2ccccc2OC)CC1`, the Ki [12] is reported as 3290 nM and the Selectivity (Rattus norvegicus [14]) is reported as 13.
